# Experimental data as given in ChEMBL document CHEMBL4619786, “Discovery of Novel Resorcinol Dibenzyl Ethers Targeting the Programmed Cell Death-1/Programmed Cell Death-Ligand 1 Interaction as Potential Anticancer Agents” (J Med Chem, 2020).
# How the values were obtained:
# [1] = biological target: Programmed cell death protein 1/Programmed cell death 1 ligand 1 (Homo sapiens, UniProt Q9NZQ7); assay: Inhibition of human C-terminal Ig-Fc-tagged PD1 (Leu25 to Gln167 residues) expressed in HEK293 cells/human C-terminal epitope-His-tagged PDL1 (Phe19 to Arg238 residues) expressed in HEK293 cells protein-protein interaction preincubated for 15 mins with PDL1 followed by PD1 addition and measured after 15 mins by APC-labeled anti-His antibody/Eu-labeled anti-human IgG based HTRF assay; assay type: cell-based
# Sequence of Programmed cell death protein 1/Programmed cell death 1 ligand 1 (Q15116 whole entry): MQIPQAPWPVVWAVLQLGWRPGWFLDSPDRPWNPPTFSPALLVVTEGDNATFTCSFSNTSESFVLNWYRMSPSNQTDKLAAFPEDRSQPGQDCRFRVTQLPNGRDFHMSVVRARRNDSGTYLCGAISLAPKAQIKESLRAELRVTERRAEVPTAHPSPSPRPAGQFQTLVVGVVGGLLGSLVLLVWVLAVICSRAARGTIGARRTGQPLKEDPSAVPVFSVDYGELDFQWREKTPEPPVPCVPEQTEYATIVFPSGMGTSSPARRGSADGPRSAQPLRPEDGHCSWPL
# Sequence of Programmed cell death protein 1/Programmed cell death 1 ligand 1 (Q9NZQ7 whole entry): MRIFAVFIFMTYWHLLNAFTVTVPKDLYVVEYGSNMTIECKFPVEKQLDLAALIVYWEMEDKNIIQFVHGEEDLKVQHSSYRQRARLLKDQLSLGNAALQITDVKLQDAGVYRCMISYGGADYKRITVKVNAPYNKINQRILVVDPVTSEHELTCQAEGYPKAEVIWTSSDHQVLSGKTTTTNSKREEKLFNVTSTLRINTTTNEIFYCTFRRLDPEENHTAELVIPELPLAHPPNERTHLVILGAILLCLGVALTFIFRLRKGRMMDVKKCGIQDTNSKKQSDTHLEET
# [2] = Half life in Sprague-Dawley rat at 1 mg/kg, iv by LC-MS/MS analysis; assay type: ADME, organism-based; conditions: in vivo
# [3] = Half life in Sprague-Dawley rat at 10 mg/kg, po by LC-MS/MS analysis; assay type: ADME, organism-based; conditions: in vivo
# [4] = Toxicity in Sprague-Dawley rat at 10 mg/kg, po; assay type: organism-based; conditions: in vivo
# A549 = assay: Cytotoxicity against human A549 cells assessed as reduction in cell viability measured after 48 hrs by MTT assay; assay type: functional, cell-based; conditions: A549, 48 h
# B16-F10 [5] = assay: Cytotoxicity against mouse B16/F10 cells assessed as reduction in cell viability measured after 48 hrs by MTT assay; assay type: functional, cell-based; conditions: B16-F10, 48 h
# B16-F10 [6] = assay: Antitumor activity against mouse B16/F10 cells implanted in BALB/c mouse assessed as tumor growth inhibition at 25 mg/kg, ig administered once daily via gavage for 15 days relative to control; assay type: functional; conditions: B16-F10, po, 360 h, read-out: TGI
# B16-F10 [7] = assay: Antitumor activity against mouse B16/F10 cells implanted in BALB/c mouse assessed as tumor growth inhibition at 100 mg/kg, ig administered once daily via gavage for 15 days relative to control; assay type: functional; conditions: B16-F10, po, 360 h, read-out: TGI
# [8] = Toxicity in mouse B16/F10 cells implanted […] mouse assessed as increase in body weight at 25 to 100 mg/kg, ig administered once daily via gavage for 15 days measured during compound dosing; assay type: organism-based; conditions: in vivo, po, 360 h
# [9] = Toxicity in […] cells xenografted BALB/c mouse assessed as decrease in body weight at 25 mg/kg, ip administered once daily for 14 days measured daily during compound dosing; assay type: organism-based; conditions: in vivo, 336 h
# [10] = Toxicity in mouse B16/F10 cells implanted […] mouse assessed as histological changes in kidney at 25 to 100 mg/kg, ig administered once daily via gavage for 15 days measured 24 hrs post-last dose by H and E staining based microscopic analysis; assay type: organism-based; conditions: in vivo, po
# [11] = Toxicity in mouse B16/F10 cells implanted […] mouse assessed as histological changes in liver at 25 to 100 mg/kg, ig administered once daily via gavage for 15 days measured 24 hrs post-last dose by H and E staining based microscopic analysis; assay type: organism-based; conditions: in vivo, po
# Mus musculus [12] = assay: (§1) Immunostimulatory activity in mouse B16/F10 cells implanted […] mouse assessed as increase in activation of tumor-microenvironment mediated helper T cells in tumor by measuring CD4-positive cell population at 100 mg/kg, ig administered once daily via gavage for 15 days measured 24 hrs post-last dose by immunostaining based flow cytometry (reference value: 4.95%); assay type: functional
# Mus musculus [13] = assay: as §1, with “CD3-positive/CD4-positive” for “CD4-positive”, “6.15%)” for “4.95%)”; assay type: functional
# Mus musculus [14] = assay: as §1, with “activated cytotoxic” for “helper”, “CD8-positive” for “CD4-positive”, “2.2%)” for “4.95%)”; assay type: functional
# Mus musculus [15] = assay: as §1, with “activated cytotoxic” for “helper”, “melanoma” for “CD4-positive”, “72.8%)” for “4.95%)”; assay type: functional
# Mus musculus [16] = assay: as §1, with “activated cytotoxic” for “helper”, “CD3-positive” for “CD4-positive”, “20.8%)” for “4.95%)”; assay type: functional
# Mus musculus [17] = assay: as §1, with “melanoma” for “CD4-positive”, “50” for “100”, “70%)” for “4.95%)”; assay type: functional
# Mus musculus [18] = assay: as §1, with “activated cytotoxic” for “helper”, “CD3-positive/CD8-positive” for “CD4-positive”, “50” for “100”, “4.18%)” for “4.95%)”; assay type: functional
# Mus musculus [19] = assay: as §1, with “25” for “100”; assay type: functional
# Mus musculus [20] = assay: as §1, with “activated cytotoxic” for “helper”, “CD3-positive/CD8-positive” for “CD4-positive”, “25” for “100”, “4.18%)” for “4.95%)”; assay type: functional
# Mus musculus [21] = assay: Effect on spleen helper T cell population in mouse B16/F10 cells implanted […] mouse assessed as spleen cell population at 100 mg/kg, ig administered once daily via gavage for 15 days measured 24 hrs post-last dose by immunostaining based flow cytometry (reference value: 56.1 %); assay type: ADME, organism-based; conditions: in vivo, po
# Mus musculus [22] = assay: Effect on spleen helper T cell population in mouse B16/F10 cells implanted […] mouse assessed as CD3-positive cell population at 100 mg/kg, ig administered once daily via gavage for 15 days measured 24 hrs post-last dose by immunostaining based flow cytometry (reference value: 14.7%); assay type: organism-based; conditions: in vivo, po
# Mus musculus [23] = assay: Effect on activated cytotoxic T cell population in mouse B16/F10 cells implanted […] mouse assessed as spleen cell population at 100 mg/kg, ig administered once daily via gavage for 15 days measured 24 hrs post-last dose by immunostaining based flow cytometry (reference value: 57.9 %); assay type: organism-based; conditions: in vivo, po
# Mus musculus [24] = assay: Effect on activated cytotoxic T cell population in mouse B16/F10 cells implanted […] mouse assessed as CD8-positive cell population in spleen at 50 mg/kg, ig administered once daily via gavage for 15 days measured 24 hrs post-last dose by immunostaining based flow cytometry (reference value: 0.383 %); assay type: organism-based; conditions: in vivo, po
smiles,measurement,setting,value
Cc1c(COc2cc(OCc3cccc(C#N)c3)c(CNC(C)(C)C(=O)O)cc2Cl)cccc1-c1ccccc1,IC50,[1],0.0125 µM
same,half-life,[2],1.5 h
same,half-life,[3],10.9 h
same,Activity,[4],Non-Toxic
same,IC50,A549,> 10 µM
same,IC50,B16-F10 [5],> 10 µM
same,inhibition in vivo at 25 mg/kg,B16-F10 [6],51.1%
same,inhibition in vivo at 100 mg/kg,B16-F10 [7],80.9%
same,Activity,[8],Toxic
same,Activity,[9],Non-Toxic
same,Activity,[10],Non-Toxic
same,Activity,[11],Non-Toxic
same,Activity,Mus musculus [12],1.3%
same,Activity,Mus musculus [13],13.8%
same,Activity,Mus musculus [14],13.5%
same,Activity,Mus musculus [15],44.8%
same,Activity,Mus musculus [16],18.7%
same,Activity,Mus musculus [17],68.4%
same,Activity,Mus musculus [18],14.8%
same,Activity,Mus musculus [19],4.36%
same,Activity,Mus musculus [20],12.4%
same,Activity,Mus musculus [21],60.4%
same,Activity,Mus musculus [22],12.8%
same,Activity,Mus musculus [23],62.6%
same,Activity,Mus musculus [24],0.374%
